# Measured values published in paper PMC4145329 (Marine Drugs, 2014).
# How the values were obtained:
# HepG2 cells [1] = test: MTT anti-proliferative assay, HepG2; type: cell-based, human; conditions: for Cytotoxicity IC50, HepG2: human, 72 h
# Method: (§1) All of the cells were incubated at 37 °C in a humidified atmosphere composed of 95% air and 5% CO2. The cell viability was determined by measuring the ability of cells to transform MTT (Genview, Houston, TX, USA) to a purple formazan dye. The cells were seeded in 96-well tissue culture plates at 2.5 × 10^3 cells/well for 24 h. […] After incubation, 20 μL/well of MTT solution (5 mg/mL phosphate buffered saline) were added and incubated for 5 h. The medium was aspirated and replaced with 100 μL/well of DMSO to dissolve the formazan salt. The color intensity of the formazan solution, which reflects the cell growth condition, was measured at 570 nm using a microplate spectrophotometer (SpectroAma™ 250, Winooski, VT, USA).
# [2] = MTT anti-proliferative assay, L02; type: cell-based; conditions: human
# Method: as §1
# SW480 cells = test: MTT anti-proliferative assay, SW480; type: cell-based, human; conditions: for Cytotoxicity IC50, SW480: human, 72 h
# Method: as §1
# U87 cells = test: MTT anti-proliferative assay, U87; type: cell-based, human; conditions: for Cytotoxicity IC50, U87: human, 72 h
# Method: as §1
# MCF-7 cells = test: MTT anti-proliferative assay, MCF-7; type: cell-based, human; conditions: for Cytotoxicity IC50, MCF-7: human, 72 h
# Method: as §1
# HepG2 cells [3] = test: Annexin V-FITC/PI flow cytometry apoptosis analysis; type: cell-based, human; conditions: 72 h; for percentage of early apoptotic cells: mean; for Q4 (lower right, early apoptotic cells), representative dot plot: Figure 3 picture
# Method: The apoptotic cells were quantified using an Annexin V-FITC (Sigma-Aldrich, USA) Apoptosis Detection Kit according to the manufacturer’s instructions. […] Five μL of Annexin V-fluorescein isothiocyanate (FITC) and 5 μL of PI were added. The analysis was performed with a FACScan flow cytometer (Coulter Epics Elite, Miami, FL, USA). The cells in the FITC-positive and PI-negative fraction were regarded as apoptotic cells.
# HepG2 cells [4] = test: Hoechst33342 staining, nuclear damage observation; type: cell-based, human; conditions: HepG2, 3, 6, 12 μg/mL, 72 h
# Method: Apoptotic nuclear morphology was visualized by the Hoechsst33342 staining technique. Cells were fixed with 3.7% of paraformaldehyde for 10 min at room temperature and washed three times with PBS. Thus, paraformaldehyde-fixed cells were stained using Hoechsst33342 (10 μg/mL) in the dark for 10 min. After washing three times with PBS, cells were visualized using fluorescence microscope.
# caspase-3 = test: Western blot, cleaved caspase-3 in HepG2; type: cell-based, human; conditions: HepG2, 3, 6, 12, and 24 μg/mL, 72 h
# Method: (§2) The protein was extracted with RIPA buffer and quantified using the Bradford method. Equal amounts of protein were loaded into each well. After SDS-PAGE, the proteins were transferred to a polyvinylidene difluoride (PVDF) membrane. The membrane was blocked with 5% non-fat milk for 1 h and incubated with a primary antibody (Cell Signaling Technology, Danvers, MA, USA, Rabbit monoclonal antibody, 1:1000) at 4 °C overnight. After washing two times with TBST (Tris-buffered saline with 0.1% Tween-20) buffer, the membrane was incubated with a secondary antibody (goat-anti-rabbit horseradish peroxidase (HRP)-conjugated 1:15,000) at room temperature for 1 h. The membranes were washed three times (8 min each time) with TBST. The intensity of the specific immunoreactive bands was detected through enhanced chemiluminescence (ECL).
# caspase-9 = test: Western blot, cleaved caspase-9 in HepG2; type: cell-based, human; conditions: HepG2, 3, 6, 12, and 24 μg/mL, 72 h
# Method: as §2
# PARP = test: Western blot, cleaved PARP in HepG2; type: cell-based, human; conditions: HepG2, 3, 6, 12, and 24 μg/mL, 72 h
# Method: as §2
# [5] = system: human renal cell carcinoma GRC-1; conditions: earlier research; cited from earlier work
# [6] = system: hepatocellular carcinoma HepG2; conditions: earlier research; cited from earlier work
Molecule,"Cytotoxicity IC50, HepG2 (HepG2 cells [1]) [µg/mL]",IC50 at 72 h [2] [µg/mL],"Cytotoxicity IC50, SW480 (SW480 cells) [µg/mL]","Cytotoxicity IC50, U87 (U87 cells) [µg/mL]","Cytotoxicity IC50, MCF-7 (MCF-7 cells) [µg/mL]","Q4 (lower right, early apoptotic cells), representative dot plot (HepG2 cells [3]; HepG2, 6 μg/ml) [%]","Q4 (lower right, early apoptotic cells), representative dot plot (HepG2 cells [3]; HepG2, 12 μg/ml) [%]",nuclear morphology (Hoechst33342) (HepG2 cells [4]),cleaved caspase-3 expression (caspase-3),cleaved caspase-9 expression (caspase-9),cleaved PARP expression (PARP),other results
"CC(C)C[C@@H]1NC(=O)[C@H](CC(C)C)N(C)C(=O)[C@H](CC(C)C)NC(=O)[C@H](CC(C)C)N(C)C(=O)[C@H](Cc2ccccc2)NC1=O [Compound A1, Cyclo(Phe-N-Me-Leu-Leu-N-Me-Leu-Leu)]",4.11 ± 0.16,> 40,12.37 ± 1.01,>40,9.40 ± 0.43,,,,,,,
"CC(C)C[C@@H]1NC(=O)[C@H](CC(C)C)N(C)C(=O)[C@H](CC(C)C)NC(=O)[C@H](CC(C)C)N(C)C(=O)[C@@H](Cc2ccccc2)NC1=O [Compound A2, Cyclo(D-Phe-N-Me-Leu-Leu-N-Me-Leu-D-Leu)]",4.56 ± 0.20,> 40,5.75 ± 0.19,>40,9.64 ± 0.35,,,,,,,
"CC(C)C[C@@H]1NC(=O)[C@@H](CC(C)C)N(C)C(=O)[C@H](CC(C)C)NC(=O)[C@@H](Cc2ccccc2)N(C)C(=O)[C@H](CC(C)C)NC1=O [Compound A3, Cyclo(Me-D-Leu-Leu-Leu-Me-D-Phe-Leu)]",5.58 ± 0.11,> 40,10.20 ± 0.15,20.16 ± 0.30,7.23 ± 0.27,,,,,,,
"CC(C)C[C@@H]1NC(=O)[C@@H](CC(C)C)N(C)C(=O)[C@H](CC(C)C)NC(=O)[C@@H](Cc2ccccc2)N(C)C(=O)[C@@H](CC(C)C)NC1=O [Compound A4, Cyclo(Me-D-Leu-Leu-D-Leu-Me-D-Phe-Leu)]",6.27 ± 0.13,> 40,8.60 ± 0.08,2.82 ± 0.10,6.56 ± 0.18,,,,,,,
"CC(C)C[C@@H]1NC(=O)[C@@H](CC(C)C)NC(=O)[C@@H](CC(C)C)N(C)C(=O)[C@@H](CC(C)C)NC(=O)[C@@H](Cc2ccccc2)N(C)C1=O [Compound A5, Cyclo(Leu-D-N-Me-Phe-D-Leu-D-N-Me-Leu-D-Leu)]",1.46 ± 0.09,10.6 ± 0.6,5.10 ± 0.12,1.85 ± 0.11,4.18 ± 0.15,19.9,22.4,chromatin condensation at the edges of the nuclear membrane and nuclear fragmentation,significantly increased,significantly increased,significantly increased,"fold more active than galaxamide, HepG2 (HepG2 cells [1]; ratio of IC50 values): 3.17 fold; fold more active than galaxamide, SW480 (SW480 cells; ratio of IC50 values): 8.59 fold; fold more active than galaxamide, U87 (U87 cells; ratio of IC50 values): 5.73 fold; fold more active than galaxamide, MCF-7 (MCF-7 cells; ratio of IC50 values): 3.37 fold; percentage of early apoptotic cells (HepG2 cells [3]; HepG2, 3 μg/mL): 6.6% ± 1.7%; Q4 (lower right, early apoptotic cells), representative dot plot (HepG2 cells [3]; HepG2, 3 μg/ml): 6.6%; percentage of early apoptotic cells (HepG2 cells [3]; HepG2, 12 μg/mL): 22.4% ± 2.4%"
Galaxamide,,,,,,2.1,13.4,chromatin condensation at the edges of the nuclear membrane and nuclear fragmentation,significantly increased,significantly increased,significantly increased,"percentage of early apoptotic cells (HepG2 cells [3]; HepG2, 6 μg/mL): 2.3% ± 0.3%; percentage of early apoptotic cells (HepG2 cells [3]; HepG2, 24 μg/mL): 18.8% ± 1.9%; Q4 (lower right, early apoptotic cells), representative dot plot (HepG2 cells [3]; HepG2, 24 μg/ml): 18.8%; antitumor activity against GRC-1 [5]: significant antitumor activity; antitumor activity against HepG2 [6]: significant antitumor activity"
